pIC50: −log10 of the molar value.
Test: Inhibition of N-terminal GST-tagged wildtype human P38alpha (4 to 152 residues) extracted from Escherichia coli/GST-tagged MK2 (unknown origin) assessed as reduction in HSP27 phosphorylation incubated for 2 hrs in presence of ATP and HSP27-FITC peptide by fluorescence polarization based IMAP assay

Structure (SMILES)	pIC50
Cc1cnc(-c2ccnc(C(C)(C)O)n2)cc1-c1c(F)cc(OCc2ncc(F)cc2F)c(Cl)c1C	< 5.00
Cc1cnc(-c2ccnc(C(C)(C)O)n2)cc1-c1c(C)cc(OCc2ncc(F)cc2F)c(Cl)[n+]1[O-]	7.08
Cc1nn(-c2ccnc(C(C)(C)O)n2)cc1-n1c(C)cc(OCc2ncc(F)cc2F)c(Cl)c1=O	5.88
Cc1cnc(-c2ccnc(C(C)(C)O)n2)cc1-c1c(C)cc(OCc2ncc(F)cc2F)c[n+]1[O-]	< 5.00
COc1c(O[C@@H](C)c2ncc(F)cc2F)cc(C)n(-c2c(C)cnc(-c3ccnc(C(C)(C)O)n3)c2F)c1=O	7.59
CCc1c(O[C@@H](C)c2ncc(F)cc2F)cc(C)n(-c2c(C)cnc(-c3ccnc(C(C)(C)O)n3)c2F)c1=O	8.40
Cc1cnc(-c2cccc(C(C)(C)O)c2F)cc1-n1c(C)cc(O[C@@H](C)c2ncc(F)cc2F)c(C)c1=O	7.81
Cc1cnc(-c2ccnc(C(C)(C)O)n2)cc1-c1c(C)c(Cl)c(OCc2ncc(F)cc2F)c[n+]1[O-]	< 5.00
Cc1cnc(-c2ccnc(C(C)(C)O)n2)cc1N1CCC(OCc2ncc(F)cc2F)CC1=O (stereo not given)	< 5.00
Cc1cc(OCc2ncc(F)cc2F)c(Cl)c(=O)n1C1=CCCN(c2ccnc(C(C)(C)O)n2)C1	< 5.00
Cc1cnc(-c2ccnc(C(C)(C)O)n2)c(F)c1-n1c(C)cc(O[C@@H](C)c2ncc(F)cc2F)c(C(F)F)c1=O	6.95
Cc1cnc(-c2ccnc(C(C)(C)O)n2)c(F)c1-n1c(C)cc(O[C@@H](C)c2ncc(F)cc2F)c(C(C)C)c1=O	7.04
Cc1cnc(-c2ccnc(C(C)(C)O)n2)cc1-n1c(C)cc(SCc2ncc(F)cc2F)c(Cl)c1=O	7.65
Cc1cnc(-c2ccnc(C(C)(C)O)n2)cc1-n1ncc(OCc2ncc(F)cc2F)c(Cl)c1=O	5.94
Cc1cnc(-c2ccnc(C(C)(C)O)n2)c(F)c1-n1c(C)cc(O[C@@H](C)c2ncc(F)cc2F)c(C2CC2)c1=O	7.49
Cc1cnc(-c2ccnc(C(C)(C)O)n2)cc1-n1c(C)cc(Oc2ncc(F)cc2F)c(Cl)c1=O	< 5.00
Cc1cnc(-c2cccc(C(C)(C)O)c2C)c(F)c1-n1c(C)cc(OCc2ncc(F)cc2F)c(Cl)c1=O	7.17
Cc1cnc(-c2cc(C(C)(C)O)ccc2Cl)c(F)c1-n1c(C)cc(OCc2ncc(F)cc2F)c(Cl)c1=O	7.72
Cc1cnc(-c2ccnc(C(C)(C)O)n2)cc1-c1c(C)cc(OCc2ncc(F)cc2F)c(Cl)c1F	< 5.00
Cc1cnc(-c2ccnc(C(C)(C)O)n2)cc1-n1c(C)cc(COc2ncc(F)cc2F)c(Cl)c1=O	5.81
Cc1ccc(C(C)(C)O)cc1-c1ncc(C)c(-n2c(C)cc(OCc3ncc(F)cc3F)c(Cl)c2=O)c1F	7.21
Cc1cnc(-c2cc(C(C)(C)O)ccc2F)c(F)c1-n1c(C)cc(O[C@@H](C)c2ncc(F)cc2F)c(Cl)c1=O	7.21
C=C(C)c1c(O[C@@H](C)c2ncc(F)cc2F)cc(C)n(-c2c(C)cnc(-c3ccnc(C(C)(C)O)n3)c2F)c1=O	< 6.00
Cc1cnc(-c2ccnc(C(C)(C)O)n2)cc1-n1c(C)cc(OCc2ncc(F)cc2F)c(C)c1=O	7.06
Cc1cnc(-c2ccnc(C(C)(C)O)n2)c(F)c1-n1c(C)cc(O[C@@H](C)c2ncc(F)cc2F)c(C=O)c1=O	6.84
Cc1cnc(-c2ccnc(C(C)(C)O)n2)nc1-n1c(C)cc(OCc2ncc(F)cc2F)c(Cl)c1=O	< 5.00
Cc1cnc(-c2cccc(C(C)(C)O)c2Cl)c(F)c1-n1c(C)cc(OCc2ncc(F)cc2F)c(Cl)c1=O	8.22
C=Cc1c(O[C@@H](C)c2ncc(F)cc2F)cc(C)n(-c2c(C)cnc(-c3ccnc(C(C)(C)O)n3)c2F)c1=O	7.47
Cc1cnc(-c2ccnc(C(C)(C)O)n2)cc1-n1c(C)cc(OC2CN(c3ncc(F)cc3F)C2)c(Cl)c1=O	6.55
Cc1cnc(-c2ccnc(C(C)(C)O)n2)cc1-n1c(C)cc(O[C@@H](C)c2ncc(F)cc2F)c(Cl)c1=O	< 6.00

Reference: ChEMBL document CHEMBL6096702, “Discovery of a Novel p38α-MK2 Complex Inhibitor as a Potential Choice for Autoimmune Diseases” (J Med Chem, 2025)
